PubChem BioAssay (NCI)
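GI50 marks 50% less growth. TGI: concentration producing complete growth inhibition.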

Assays:
Experiment in all cases: NCI-60 cell line screen, 384-well format
[1] = system: KM12 colon
[2] = system: NCI-H522 lung
[3] = system: A498 renal
[4] = system: T-47D breast
[5] = system: ACHN renal
[6] = system: MDA-MB-435 melanoma
[7] = system: OVCAR-4 ovarian
[8] = system: MALME-3M melanoma
[9] = system: EKVX NSCLC
[10] = system: CCRF-CEM leukemia
[11] = system: A549 NSCLC
[12] = system: RXF 393 renal
[13] = system: SR leukemia
[14] = system: UO-31 renal
[15] = system: SK-MEL-28 melanoma
[16] = system: MOLT-4 leukemia
[17] = system: CAKI-1 renal
[18] = system: SK-OV-3 ovarian
[19] = system: HT29 colon
[20] = system: SF-295 CNS
[21] = system: OVCAR-8 ovarian
[22] = system: NCI-H322M lung
[23] = system: HL-60(TB) leukemia
[24] = system: SF-539 CNS
[25] = system: SNB-75 CNS
[26] = system: NCI/ADR-RES ovarian
[27] = system: SN12C renal
[28] = system: MDA-MB-231 breast
[29] = system: COLO 205 colon
[30] = system: HCT-15 colon
[31] = system: HOP-62 NSCLC
[32] = system: IGROV1 ovarian
[33] = system: PC-3 prostate
[34] = system: LOX IMVI melanoma
[35] = system: HOP-92 NSCLC
[36] = system: NCI-H226 lung
[37] = system: HS 578T breast
[38] = system: UACC-257 melanoma
[39] = system: SW-620 colon
[40] = system: SNB-19 CNS
[41] = system: UACC-62 melanoma
[42] = system: RPMI-8226 leukemia
[43] = system: NCI-H460 NSCLC
[44] = system: DU-145 prostate
[45] = system: OVCAR-3 ovarian
[46] = system: 786-0 renal
[47] = system: BT-549 breast
[48] = system: TK-10 renal
[49] = system: NCI-H23 lung
[50] = system: SF-268 CNS
[51] = system: K-562 leukemia
[52] = system: M14 melanoma
[53] = system: OVCAR-5 ovarian

Work on `Nc1ncnc2c1ccn2[C@@H]1O[C@H]([C@H](O)c2ccc(Cl)c(F)c2)[C@@H](O)[C@H]1O` yielded a GI50 [1] of under 0.01 µM, a TGI [1] of over 100 µM and a GI50 [2] of over 100 µM. It also gave a TGI [2] of over 100 µM, a GI50 [3] of 85.1 µM and a TGI [3] of over 100 µM. It also gave a GI50 [4] of under 0.01 µM, a TGI [4] of over 100 µM and a GI50 [5] of over 100 µM. It also gave a TGI [5] of over 100 µM, a GI50 [6] of over 100 µM and a TGI [6] of over 100 µM. The GI50 [7] was under 0.01 µM, the TGI [7] was over 100 µM and the GI50 [8] was 40.9 µM. For the same compound, the TGI [8] was over 100 µM, the GI50 [9] was 83.9 µM and the TGI [9] was over 100 µM. For the same compound, the GI50 [10] was 33.9 µM, the TGI [10] was over 100 µM and the GI50 [11] was over 100 µM. It also gave a TGI [11] of over 100 µM, a GI50 [12] of over 100 µM and a TGI [12] of over 100 µM. It also gave a GI50 [13] of under 0.01 µM, a TGI [13] of over 100 µM and a GI50 [14] of over 100 µM. For the same compound, the TGI [14] was over 100 µM, the GI50 [15] was over 100 µM and the TGI [15] was over 100 µM. The GI50 [16] was under 0.01 µM, the GI50 [17] was over 100 µM and the TGI [17] was over 100 µM. For the same compound, the GI50 [18] was 50.3 µM, the TGI [18] was over 100 µM and the GI50 [19] was 37.4 µM. For the same compound, the TGI [19] was over 100 µM, the GI50 [20] was over 100 µM and the TGI [20] was over 100 µM. It also gave a GI50 [21] of over 100 µM, a TGI [21] of over 100 µM and a GI50 [22] of over 100 µM. It also gave a TGI [22] of over 100 µM, a GI50 [23] of 77.1 µM and a TGI [23] of over 100 µM. The GI50 [24] was over 100 µM, the TGI [24] was over 100 µM and the GI50 [25] was over 100 µM. The TGI [25] was over 100 µM, the GI50 [26] was over 100 µM and the TGI [26] was over 100 µM. For the same compound, the GI50 [27] was 41.6 µM, the TGI [27] was over 100 µM and the GI50 [28] was over 100 µM. The TGI [28] was over 100 µM, the GI50 [29] was over 100 µM and the TGI [29] was over 100 µM. For the same compound, the GI50 [30] was over 100 µM, the TGI [30] was over 100 µM and the GI50 [31] was over 100 µM. For the same compound, the TGI [31] was over 100 µM, the GI50 [32] was 28.7 µM and the TGI [32] was over 100 µM. For the same compound, the GI50 [33] was 97.7 µM, the TGI [33] was over 100 µM and the GI50 [34] was over 100 µM. It also gave a TGI [34] of over 100 µM, a GI50 [35] of over 100 µM and a TGI [35] of over 100 µM. It also gave a GI50 [36] of over 100 µM, a TGI [36] of over 100 µM and a GI50 [37] of over 100 µM. The TGI [37] was over 100 µM, the GI50 [38] was over 100 µM and the TGI [38] was over 100 µM. The GI50 [39] was over 100 µM, the TGI [39] was over 100 µM and the GI50 [40] was over 100 µM. The TGI [40] was over 100 µM, the GI50 [41] was over 100 µM and the TGI [41] was over 100 µM. For the same compound, the GI50 [42] was 12.6 µM, the TGI [42] was over 100 µM and the GI50 [43] was under 0.01 µM. For the same compound, the TGI [43] was over 100 µM, the GI50 [44] was over 100 µM and the TGI [44] was over 100 µM. The GI50 [45] was over 100 µM, the TGI [45] was over 100 µM and the GI50 [46] was 72.9 µM. For the same compound, the TGI [46] was over 100 µM, the GI50 [47] was over 100 µM and the TGI [47] was over 100 µM. For the same compound, the GI50 [48] was over 100 µM, the TGI [48] was over 100 µM and the GI50 [49] was 52.9 µM. For the same compound, the TGI [49] was over 100 µM, the GI50 [50] was over 100 µM and the TGI [50] was over 100 µM. The GI50 [51] was 32.7 µM, the TGI [51] was over 100 µM and the GI50 [52] was over 100 µM. The TGI [52] was over 100 µM, the GI50 [53] was over 100 µM and the TGI [53] was over 100 µM.
